The nature of the data set: stability to acid. In kind it is physicochemical.

`CC(C)=CCCC1(C)CC1C=O` (racemic) [2-methyl-2-(4-methylpent-3-en-1-yl)cyclopropanecarbaldehyde]: the stability to acid entry was “stable to acid”.

Values taken from patent US20070264340A1, “Aromachemicals” (Flexitral, Inc., priority 2006, published 2007).
